Data reported in US6492531B1, “Method of treating cognitive disorders” (Warner-Lambert Company, priority 1992, dated 2002).

Tests used:
[1] = tested on: mice; test: mouse light/dark box habituation test; format: in vivo; details: 0.25 mg/kg
Procedure: (§1) A test carried out using the mouse light/dark box and the rat T-maze reinforced alternation task.
On repeated exposure to the light/dark box mice habituate by moving more rapidly from the light to the dark side. The habituation occurs over a 4 to 6 day period, with a reduction in latency of movement from about 14 sec to 2 to 4 sec by the 4th day of the test.
The compounds was administered at a dose of 0.00001 mg/kg SC once daily.
The days (1-6) are along the X axis and the time in seconds is along the Y axis (latency white to black) and Day 6 scopolamine was 0.25.
∘ p <0.001 indicates improved habituation, comparison is with 1 day.
* p <0.05 to p <0.001 is improved performance, compared to control.
+ p <0.001 is scopolamine impairment.
Δ p <0.001 is inhibition of scopolamine impairment.

[2] = tested on: rat; test: rat T-maze reinforced alternation task; format: in vivo; details: twice daily 0.25 mg/kg
Procedure: as §1
The X axis is the day and the Y axis is the percent correct responses.
The number of mice tested was six.
⬭ - - - ⬭ is the control vehicle.
⬬ - - - ⬬ is scopolamine at 0.25 mg/kg IP BID.

CN1[C@@H]2C[C@@H](OC(=O)[C@H](CO)c3ccccc3)C[C@H]1[C@@H]1O[C@@H]12 [scopolamine]
effect of scopolamine on habituation performance [1]: impairment of performance | effect of scopolamine on task performance [2]: deficit
